How the values were obtained:
[1] = target: T1, Recombinant STAT3 protein (STAT3(G127-I722)) (Homo sapiens, UniProt P40763); assay: STAT3 Fluorescence Polarization (FP) Assay; assay type: binding; details: 25 nM STAT3(G127-I722), 2 nM 5-FAM-GpYLPQTV-NH2 probe, pH 7.4, 45-minute incubation at room temperature
T1 construct: Recombinant STAT3 protein (STAT3(G127-I722))
Protocol: An FP assay was developed to determine IC50 values for test substances. Recombinant STAT3 protein (STAT3(G127-I722)) at 25 nM was combined with a fluorescently labeled, phosphotyrosine peptide probe (5-FAM-GpYLPQTV-NH2) at 2 nM in FP buffer (10 mM HEPES pH 7.4, 50 mM NaCl. 1 mM EDTA, 0.05% Tween 20, 2 mM DTT). 50 μL of STAT3-probe mixture was added to serial diluted compounds in black, 96-well plates (Greiner BioOne 655076) to a final concentration of 1% DMSO. Reaction components were mixed, and FP was measured after 45-minute incubation at room temperature using a Tecan Spark multimode plate reader. FP signal (mP) was plotted against the log concentration of the test substances and IC50 values were calculated by nonlinear regression analysis using GraphPad Prism software. For STAT3 FP assay, A=≤100 nM; B=>100-1000 nM; C=>1-10 μM; and D=>10 μM.

[2] = target: T2, Recombinant STAT6 protein (STAT6(W123-T658)) (Homo sapiens, UniProt P42226); assay: STAT6 Fluorescence Polarization (FP) Assay; assay type: binding; details: 250 nM STAT6(W123-T658), 2 nM 5-FAM-Ap[…]-NH2 probe, pH 7.4, 45-minute incubation at room temperature
T2 construct: Recombinant STAT6 protein (STAT6(W123-T658))
T2 sequence (P42226 123-658): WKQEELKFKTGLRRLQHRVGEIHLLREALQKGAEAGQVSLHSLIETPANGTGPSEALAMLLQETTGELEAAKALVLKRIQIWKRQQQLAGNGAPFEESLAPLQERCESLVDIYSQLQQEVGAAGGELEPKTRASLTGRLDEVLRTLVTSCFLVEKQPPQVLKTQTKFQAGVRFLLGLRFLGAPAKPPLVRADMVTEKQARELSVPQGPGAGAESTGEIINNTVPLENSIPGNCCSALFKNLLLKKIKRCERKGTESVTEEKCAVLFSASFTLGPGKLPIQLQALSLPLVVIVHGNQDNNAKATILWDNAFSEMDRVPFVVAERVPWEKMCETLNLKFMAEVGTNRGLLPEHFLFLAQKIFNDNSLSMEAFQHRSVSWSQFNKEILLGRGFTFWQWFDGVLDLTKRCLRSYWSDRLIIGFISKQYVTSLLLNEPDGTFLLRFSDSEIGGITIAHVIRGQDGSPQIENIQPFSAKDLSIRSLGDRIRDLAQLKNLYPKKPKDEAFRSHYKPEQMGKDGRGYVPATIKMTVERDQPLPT
Protocol: An FP assay was developed to determine IC50 values for test substances. Recombinant STAT6 protein (STAT6(W123-T658)) at 250 nM was combined with a fluorescently labeled, phosphotyrosine peptide probe (5-FAM-Ap[…]-NH2) at 2 nM in FP buffer (10 mM HEPES pH 7.4, 50 mM NaCl, 1 mM EDTA, 0.05% Tween 20, 2 mM DTT). 50 μL of STAT6-probe mixture was added to serial diluted compounds in black, 96-well plates (Greiner BioOne 655076) to a final concentration of 1% DMSO. Reaction components were mixed, and FP w as measured after 45-minute incubation at room temperature using a Tecan Spark multimode plate reader. FP signal (mP) was plotted against the log concentration of the test substances and IC50 values were calculated by nonlinear regression analysis using GraphPad Prism software. For STAT6 FP assay. A=≤300 nM; B=>300-3000 nM; C=>3-30 μM; and D=>30 μM.

[3] = system: pSTAT6 (pY641-STAT6) in PBMC; assay: MSD-pSTAT-PBMC Assay (pSTAT6); assay type: cell-based; details: compound 3 hrs, then 1 ng/mL IL-4 for 10 min
Source text: Cryopreserved Peripheral Blood Mononuclear Cells (PBMC) are from AllCells. Recombinant Human […] and IL-6 are from Peprotech. Mouse monoclonal anti-STAT3 antibody, rabbit monoclonal anti-pY705-STAT3 antibody, rabbit monoclonal Anti-pY641-STAT6 antibody, and lysis buffer are from Cell Signaling Technology (CST). Mouse monoclonal anti-STAT6 antibody is from BioLegend. Assay plates, blocker, and anti-rabbit secondary antibody are from Meso Scale Discovery (MSD).
Cryopreserved PBMCs were thawed out and allowed to recover overnight in IMDM+10% heat-inactivated FBS prior to plating 50,000 (STAT3) or 25,000 (STAT6) cells per well in 96-well U-bottom tissue culture plates. Cells were treated with compound for 3 hrs, then stimulated with 10 ng/mL IL-6 (STAT3) or 1 ng/mL IL-4 (STAT6) for 10 min. Cells were then spun down and washed with ice-cold PBS prior to lysing the cell pellet with 1× lysis buffer (CST) with 1× HALT protease and phosphatase inhibitor cocktail (Thermo). Lysates were transferred to and incubated overnight at 4° C. with shaking in QuickPlex 96-well high bind assay plates (MSD) pre-coated overnight with 30 μL per well of 0.6 μg/mL mouse monoclonal anti-STAT3 antibody (STAT3) or 2 μg/mL mouse monoclonal anti-STAT6 antibody (STAT6) in 1×PBS, and pre-blocked for 1 hour with 3% Blocker-A (MSD). Captured protein in the assay plates were then washed and probed with 25 μL per well of 0.25 μg/ml rabbit monoclonal anti-pY705-STAT3 antibody (STAT3) or 0.18 μg/ml rabbit monoclonal Anti-pY641-STAT6 antibody (STAT6) in 1% Blocker-A for 1 hour at room temperature with shaking, then washed and probed with 25 ul per well of 1 ug/ml Sulfo-TAG Labeled Goat Anti-Rabbit Antibody (MSD) in 1% Blocker-A for 1 hour at room temperature with shaking. Assay plates were then washed and 150 μL of 1× Read Buffer-T (MSD) was added to each well prior to reading on an SQ120 MSD Plate Reader. Assay signal from each sample was subtracted by the signal from unstimulated control wells and normalized to DMSO control wells, IC50 values were calculated using Graph Pad Prism Dose-Response Nonlinear Regression with variable slope. For both pSTAT3 and pSTAT6 A=≤100 nM; B=>100-1000 nM; C=>1000-3000 nM; and D=>3 μM.

T1 sequence (P40763 127-722): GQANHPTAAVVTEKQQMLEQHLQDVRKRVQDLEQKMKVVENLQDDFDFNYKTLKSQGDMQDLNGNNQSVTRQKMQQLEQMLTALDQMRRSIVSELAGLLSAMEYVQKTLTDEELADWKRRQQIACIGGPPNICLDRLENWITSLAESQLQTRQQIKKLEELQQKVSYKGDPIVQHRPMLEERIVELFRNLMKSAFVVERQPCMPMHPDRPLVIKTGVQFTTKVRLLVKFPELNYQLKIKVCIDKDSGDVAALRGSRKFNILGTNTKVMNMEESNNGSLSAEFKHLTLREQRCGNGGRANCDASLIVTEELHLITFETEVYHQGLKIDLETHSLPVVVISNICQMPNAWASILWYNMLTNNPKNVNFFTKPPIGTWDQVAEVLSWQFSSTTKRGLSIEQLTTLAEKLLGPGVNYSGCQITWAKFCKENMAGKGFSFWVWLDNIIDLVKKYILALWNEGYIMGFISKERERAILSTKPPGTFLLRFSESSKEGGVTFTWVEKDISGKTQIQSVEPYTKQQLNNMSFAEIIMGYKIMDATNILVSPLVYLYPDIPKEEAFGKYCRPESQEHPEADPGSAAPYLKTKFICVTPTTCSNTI

| SMILES | IC50 [1] [nM] | IC50 [2] [nM] | IC50 [3] [nM] |
| --- | --- | --- | --- |
| N#CC1CN(C(=O)C2CCC3CC4CC4CC(NC(=O)c4cc5cc(C(F)(F)P(=O)(O)O)ccc5s4)C(=O)N32)CC1c1cccc(OCCOCCOc2cccc3c2CN(C2CCC(=O)NC2=O)C3=O)c1 [Compound 15, ((2-(((3S,6S,7aS,8aR,9aR)-3-((rel-3S,4R)-3-cyano-4-(3-(2-(2-((2-(2,6-dioxopiperidin-3-yl)-1-oxoisoindolin-4-yl)oxy)ethoxy)ethoxy)phenyl)pyrrolidine-1-carbonyl)-5-oxodecahydro-1H-cyclopropa[d]pyrrolo[1,2-a]azocin-6-yl)carbamoyl)benzo[b]thiophen-5-yl)difluoromethyl)phosphonic acid] | 100 to 1000 | < 300 | > 3000 |
| O=C1CCC(n2c(=O)[nH]c3cc(N4CCC(n5ccc([C@@H]6CN(C(=O)[C@@H]7CC[C@@H]8C[C@H]9C[C@H]9C[C@H](NC(=O)c9cc%10cc(C(F)(F)P(=O)(O)O)ccc%10s9)C(=O)N87)C7(CC7)C6)cc5=O)CC4)ccc32)C(=O)N1 (stereo partly drawn) [Compound 19, ((2-(((3S,6S,7aS,8aR,9aR)-3-((6R)-6-(1-(1-(1-(2,6-dioxopiperidin-3-yl)-2-oxo-2,3-dihydro-1H-benzo[d]imidazol-5-yl)piperidin-4-yl)-2-oxo-1,2-dihydropyridin-4-yl)-4-azaspiro[2.4]heptane-4-carbonyl)-5-oxodecahydro-1H-cyclopropa[d]pyrrolo[1,2-a]azocin-6-yl)carbamoyl)benzo[b]thiophen-5-yl)difluoromethyl)phosphonic acid] | 100 to 1000 | 300 to 3000 | > 3000 |
| N#CC1CN(C(=O)C2CCC3CC4CC4CC(NC(=O)c4cc5cc(C(F)(F)P(=O)(O)O)ccc5s4)C(=O)N32)CC1c1cccc(OCCCCCC#Cc2cccc3c2CN(C2CCC(=O)NC2=O)C3=O)c1 [Compound 7, ((2-(((3S,6S,7aS,8aR,9aR)-3-((rel-3S,4R)-3-cyano-4-(3-((7-(2-(2,6-dioxopiperidin-3-yl)-1-oxoisoindolin-4-yl)hept-6-yn-1-yl)oxy)phenyl)pyrrolidine-1-carbonyl)-5-oxodecahydro-1H-cyclopropa[d]pyrrolo[1,2-a]azocin-6-yl)carbamoyl)benzo[b]thiophen-5-yl)difluoromethyl)phosphonic acid] | 100 to 1000 | 300 to 3000 | > 3000 |
| N#CC1CN(C(=O)C2CCC3CC4CC4CC(NC(=O)c4cc5cc(C(F)(F)P(=O)(O)O)ccc5s4)C(=O)N32)CC1c1cccc(OCCCCOc2ccc(C3CCC(=O)NC3=O)cc2)c1 [Compound 3, ((2-(((3S,6S,7aS,8aR,9aR)-3-((rel-3S,4R)-3-cyano-4-(3-(4-(4-(2,6-dioxopiperidin-3-yl)phenoxy)butoxy)phenyl)pyrrolidine-1-carbonyl)-5-oxodecahydro-1H-cyclopropa[d]pyrrolo[1,2-a]azocin-6-yl)carbamoyl)benzo[b]thiophen-5-yl)difluoromethyl)phosphonic acid] | 1000 to 10000 | 300 to 3000 | > 3000 |
| CCCC(=O)SCCOP(=O)(OCCSC(=O)CCC)C(F)(F)c1ccc2sc(C(=O)NC3CC4CC4CC4CCC(C(=O)N5CC(c6ccn(C7CCN(c8ccc9c(c8)[nH]c(=O)n9C8CCC(=O)NC8=O)CC7)c(=O)c6)CC56CC6)N4C3=O)cc2c1 [Compound 20, S,S′-(((((2-(((3S,6S,7aS,8aR,9aR)-3-((6R)-6-(1-(1-(1-(2,6-dioxopiperidin-3-yl)-2-oxo-2,3-dihydro-1H-benzo[d]imidazol-5-yl)piperidin-4-yl)-2-oxo-1,2-dihydropyridin-4-yl)-4-azaspiro[2.4]heptane-4-carbonyl)-5-oxodecahydro-1H-cyclopropa[d]pyrrolo[1,2-a]azocin-6-yl)carbamoyl)benzo[b]thiophen-5-yl)difluoromethyl)phosphoryl)bis(oxy))bis(ethane-2,1-diyl)) dibutanethioate] |  |  | 100 to 1000 |
| CCCC(=O)SCCOP(=O)(OCCSC(=O)CCC)C(F)(F)c1ccc2sc(C(=O)NC3CC4CC4CC4CCC(C(=O)N5CC(C#N)C(c6cccc(N7CCN(c8ccc9c(c8)[nH]c(=O)n9C8CCC(=O)NC8=O)CC7)c6)C5)N4C3=O)cc2c1 [Compound 14, S,S′-(((((2-(((3S,6S,7aS,8aR,9aR)-3-((rel-3S,4R)-3-cyano-4-(3-(4-(1-(2,6-dioxopiperidin-3-yl)-2-oxo-2,3-dihydro-1H-benzo[d]imidazol-5-yl)piperazin-1-yl)phenyl)pyrrolidine-1-carbonyl)-5-oxodecahydro-1H-cyclopropa[d]pyrrolo[1,2-a]azocin-6-yl)carbamoyl)benzo[b]thiophen-5-yl)difluoromethyl)phosphoryl)bis(oxy))bis(ethane-2,1-diyl)) dibutanethioate] |  |  | < 100 |
| CCCC(=O)SCCOP(=O)(OCCSC(=O)CCC)C(F)(F)c1ccc2sc(C(=O)NC3CC4CC4CC4CCC(C(=O)N5CC(c6ccn(CCCCCOc7ccc(C8CCC(=O)NC8=O)cc7)c(=O)c6)CC56CC6)N4C3=O)cc2c1 [Compound 9, S,S′-(((((2-(((3S,6S,7aS,8aR,9aR)-3-((6R)-6-(1-(5-(4-(2,6-dioxopiperidin-3-yl)phenoxy)pentyl)-2-oxo-1,2-dihydropyridin-4-yl)-4-azaspiro[2.4]heptane-4-carbonyl)-5-oxodecahydro-1H-cyclopropa[d]pyrrolo[1,2-a]azocin-6-yl)carbamoyl)benzo[b]thiophen-5-yl)difluoromethyl)phosphoryl)bis(oxy))bis(ethane-2,1-diyl)) dibutanethioate] |  |  | < 100 |

— patent US20260308185A1, “STAT DEGRADERS AND USES THEREOF” (Recludix Pharma, Inc., priority 2023, published 2026)
